# Source: patent US20190030009A1, “COMPOUNDS AND COMPOSITIONS FOR THE TREATMENT OF CRYPTOSPORIDIOSIS” (Novartis AG, priority 2016, published 2019)
# How the values were obtained:
# Cryptosporidium parvum = test: Cytopathic effect (CPE) based assay, C. parvum infected HCT-8 cells; details: HCT-8 host cell viability (CellTiter-Glo), 48 hours treatment, read-out: Cp CPE EC50
# Experimental: Human ileocecal colorectal adenocarcinoma cells (HCT-8 [HRT-18] ATCC, CCL-34) were maintained in T-175 flasks (Corning, 431080) in complete growth medium (RPMI-1640 medium (Gibco, 11875) supplemented with 10% heat-inactivated horse serum (Gibco, 26050), 1×MEM non-essential amino acids (Gibco, 11140), 10 mM HEPES (Gibco, 15630), 100 units/mL penicillin, and 100 units/mL streptomycin) at 37° C. and 5% CO2 in a humidified incubator. Cultures were passaged twice weekly using 10 mL of 1×Phosphate-Buffered Saline (PBS) without Ca^2+ and Mg^2+ (Gibco, 20012) for washing and 3-5 mL per T-175 flask of TrypLE Express Enzyme (Gibco, 12604) for dissociation of adherent cells.
# Cryptosporidium parvum oocysts purchased from the Sterling Laboratory, University of Arizona (Iowa isolate) were purified from infected calf feces using discontinuous sucrose and cesium chloride centrifugation gradients and stored in PBS solution containing 0.01% Tween 20, 100 units/mL penicillin and 100 units/mL gentamicin.
# Excystation and infection protocols were developed following established methods with some modifications (Gut & Nelson, 1999, Upton et aL, 1995, Bessoff et aL, 2013). Briefly, oocysts were primed in 1 mL of 10 mM hydrochloric acid in 1× Hank's Balanced Salt Solution (HBSS) (Gibco, 14025) for 10 minutes with agitation at 1000 rpm, 37° C. on an Eppendorf thermomixer, then washed twice with 1 mL of room temperature non-acidic 1× HBSS by centrifugation at 13,000 rpm for 3 minutes at 25° C. Primed oocysts were further excysted at a concentration of 1×10^6 oocysts/μL in parasite infection medium consisting of a pre-warmed and pre-gassed 1:1 formulation of Leibovitz's L-15 medium (Gibco, 11415) and UltraCULTURE medium (Lonza, 12-725F) supplemented with 2 mM sodium taurocholate (Sigma, 86339-1), 10% heat-inactivated horse serum, and 200 μM L-ascorbic acid (Sigma, 95210) at 25° C. for 10 minutes. HCT-8 monolayer cells were infected with excysted cryptosporidium at a specified multiplicity of infection (MOI). All dilutions for subsequent assays were performed in parasite infection medium without sodium taurocholate. Pre-excysted oocysts were enumerated microscopically using a C-Chip disposable hemocytometer (NanoEnTek, DHC-N01).
# Compound powders were dissolved in neat DMSO (Fisher, D4121) to 10 mM and stored at 4° C. prior to dilution into source plates. Dilutions were carried out using a Microlab STAR liquid handler (Hamilton) to obtain compound source plates containing the ten-point or eight-point three fold dilutions starting from 10 mM in duplicates. Source plates were stored at 4° C. prior to spotting into assay plates. Before administration, all compound source plates were equilibrated to room temperature. A specified volume of compounds from source plate were spotted to assay plate using an Echo Acoustic liquid handler (LABCYTE, 550) so that the final DMSO concentration was less than 0.5%. Each assay plate a specified number of DMSO-treated negative control wells and a well-studied potent active compound at 100 nM as positive control. As a quality control, all positive and negative-control wells were used to calculate a Z′-value and signal to noise ratio (S:N) for each plate.
# Cryptosporidium spp are obligate-intracellular parasites that infect intestinal epithelial cells and the host cell is killed upon parasite egress. […] The loss of epithelial cells is due to both rapid parasite invasion/multiplication/egress and also pro-inflammatory immune response (Adams et al., 1994, Griffiths et al., 1994). We have observed a consistent cytopathic effect (CPE) in HCT-8 cells with C. spp infection the loss of viability of the host cells using CellTiter-Glo reagent.
# Confluent HCT-8 cells in T-175 flasks were directly infected with excysted oocysts at an MOI (host to parasite) of 1:2 for C. parvum and 1:4 for C. hominis. The number of host-cells is determined using a NucleoCounter (Chemometec, NC-100) in a control flask. […]
# [1] = Cytotoxicity against HepG2; assay type: cell-based; details: human, HepG2 cells (ATCC HB-8065), 5 days exposure
# Experimental: Cytotoxicity against HepG2 (ATCC# HB-8065), a human liver cancer cell line, was determined as previously described earlier (Manjunatha et al., 2015). Briefly, cells were seeded at a density of 10^5 cells per well, incubated at 37° C. for 24 h and exposed to two-fold serially-diluted compounds for 5 days. Cell viability was monitored using the Cell Proliferation Kit II (Invitrogen). The cytotoxicity values of selected compounds are reported in the fifth column [HepG2 CC50 (μM)] of Table II.
Structure (SMILES),EC50 (Cryptosporidium parvum),CC50 at 5 days [1]
CCN(C(=O)c1ccn2ncc(-c3ccc(C(=O)NC)cc3)c2c1)c1ccc(F)cn1 [Example 95],0.63 µM,13 µM
CN(C)CCNC(=O)c1ccc(-c2cnn3ccc(C(=O)N(C)c4ccc(C#N)cn4)cc23)cc1 [Example 115],3.02 µM,2.7 µM
CNC(=O)c1ccc(-c2cnn3ccc(C(=O)N(c4ccc(C#N)cn4)C4CCC4)cc23)nc1 [Example 155],1.01 µM,> 50 µM
CN(C(=O)c1ccn2ncc(-c3ccc(C(=O)NC4CCNCC4)cc3)c2c1)c1ccc(C#N)cn1 [Example 113],19.4 µM,2.67 µM
CNC(=O)c1ccc(-c2cnn3ccc(C(=O)N(c4ccc(C#N)cn4)C(C)C)cc23)cn1 [Example 148],1.86 µM,20.1 µM
CNC(=O)c1ccc(-c2cnn3ccc(C(=O)N(c4ccc(Cl)cc4)C4CC4)cc23)cn1 [Example 143],0.079 µM,17.5 µM
N#Cc1ccc(N(CCO)C(=O)c2ccn3ncc(-c4ccc(C(N)=O)cc4)c3c2)cc1 [Example 105],> 20 µM,> 50 µM
CNC(=O)c1ccc(-c2cnn3ccc(C(=O)Nc4ccc(C#N)cn4)cc23)cc1 [Example 106],> 20 µM,> 50 µM
CNC(=O)c1ccc(-c2cnn3ccc(C(=O)N(c4ccc(C#N)cc4)C(C)C)cc23)cn1 [Example 146],0.329 µM,32.1 µM
CNC(=O)c1ccc(-c2cnn3ccc(C(=O)N(c4ccc(F)cn4)C(C)C)cc23)cc1 [Example 151],2.31 µM,29.2 µM
CN(C(=O)c1ccn2ncc(-c3ccc(C(=O)O)cc3)c2c1)c1ccc(C#N)cn1 [Example 101],15.2 µM,> 50 µM
CCN(C(=O)c1ccn2ncc(-c3ccc(S(=O)(=O)NC)cc3)c2c1)c1ccc(C#N)cn1 [Example 140],10.3 µM,26.1 µM
CNCCNC(=O)c1ccc(-c2cnn3ccc(C(=O)N(C)c4ccc(C#N)cn4)cc23)cc1 [Example 114],9.13 µM,5.52 µM
CN(C(=O)c1ccn2ncc(-c3ccc(C(F)(F)F)cc3)c2c1)c1ccc(C#N)cn1 [Example 13],1.54 µM,> 50 µM
CNC(=O)c1ccc(-c2cnn3ccc(C(=O)N(c4ccc(Cl)cc4)C4CC4)cc23)cc1 [Example 116],0.007 µM,3.01 µM
CN(C(=O)c1ccn2ncc(-c3ccc(C(N)=O)cc3)c2c1)c1ccc(Cl)cc1 [Example 100],0.021 µM,13.3 µM
CNC(=O)c1ccc(-c2cnn3ccc(C(=O)N(c4ccc(C(=O)O)cn4)C4CC4)cc23)cc1 [Example 128],> 20 µM,> 50 µM
CNC(=O)c1ccc(-c2cnn3ccc(C(=O)N(C)c4ccc(Cl)cc4)cc23)cn1 [Example 109],0.129 µM,16.9 µM
CN(C(=O)c1ccn2ncc(-c3ccc(C(=O)NCCN)cc3)c2c1)c1ccc(C#N)cn1 [Example 104],3.61 µM,> 50 µM
N#Cc1ccc(N(C2CC2)S(=O)(=O)c2ccn3ncc(-c4ccc(C(N)=O)cc4)c3c2)nc1 [Example 165],0.607 µM,6.37 µM
CNC(=O)c1ccc(-c2cnn3ccc(C(=O)N(C)c4ccc(OCCN)cn4)cc23)cc1 [Example 111],> 20 µM,> 50 µM
